Drawing on ChEMBL document CHEMBL5385851, “Natural quinazolinones: From a treasure house to promising anticancer leads” (Eur J Med Chem, 2023), this text covers IC50 and EC50 for 17 molecules.

pIC50: −log10 of the molar value. In brackets after ≈: the same amount, converted by molar mass.

The subject of assay [1] is P388. The experiment in a line: Cytotoxicity against mouse P388 cells assessed as inhibition of cell growth. Type of assay: functional, cell-based.
The subject of assay [2] is K562. Put plainly: Cytotoxicity against human K562 cells assessed as reduction in cell viability incubated for 24 hrs by MTT assay. It counts as functional, cell-based. As to conditions: K562, 24 h.
A further assay concerns SW 1116. The experiment in a line: Antiproliferative activity against human […] cells assessed as reduction in cell viability incubated for 24 hrs by MTT assay. Particulars: SW 1116, 24 h. It counts as functional, cell-based.
The test system of the next assay is PC-3. Put plainly: Cytotoxicity against human PC-3 cells assessed as inhibition of cell growth. It counts as functional, cell-based.
For another assay, the system named is KB. Put plainly: Cytotoxicity against human KB cells assessed as cell growth inhibition. It counts as functional, cell-based.
A short description of assay [3]: Antiproliferative activity against human U373 cells assessed as inhibition of cell growth measured after 72 hrs by CTG assay. Type of assay: functional, cell-based. As to conditions: U373 MG.
The test system of assay [4] is SK-MEL-28. Put plainly: Cytotoxicity against human SK-MEL-28 cells assessed as inhibition of cell growth incubated for 72 hrs by MTT assay. Type of assay: functional, cell-based. As to conditions: SK-MEL-28, 72 h.
Assay [5] concerns HepG2. The experiment in a line: Antiproliferative activity against human HepG2 cells assessed as reduction in cell viability incubated for 72 hrs by CCK-8 assay. Type of assay: functional, cell-based. As to conditions: HepG2, 72 h.
Assay [6] relates to A549. The experiment in a line: Antiproliferative activity against human A549 cells assessed as cell growth inhibition. It counts as functional, cell-based.
The test system of assay [7] is MCF7. Put plainly: Antiproliferative activity against human MCF7 cells assessed as reduction in cell viability incubated for 48 hrs by MTT assay. It counts as functional, cell-based. Particulars: MCF7, 48 h.
Assay [8] has as its target Tryptophan 2,3-dioxygenase (Homo sapiens, UniProt P48775). Put plainly: Inhibition of TDO (unknown origin) expressed in HEK293 cells. Type of assay: cell-based.
Assay [9] addresses Indoleamine 2,3-dioxygenase 1 (Homo sapiens, UniProt P14902). The experiment in a line: Inhibition of IDO1 in human HeLa cells. Type of assay: cell-based.
Assay [10] deals with P388. Put plainly: Cytotoxicity against mouse P388 cells assessed as reduction in cell growth. Type of assay: functional. As to conditions: read-out: ED50 (the source's name).
Assay [11] deals with A549. Put plainly: Antiproliferative activity against human A549 cells assessed as reduction in cell viability incubated for 48 hrs by MTT assay. It counts as functional, cell-based. As to conditions: A549, 48 h.
For assay [12], the system named is HepG2. The experiment in a line: Antiproliferative activity against human HepG2 cells assessed as inhibition of cell growth incubated for 48 hrs by MTT based colorimetric assay. Type of assay: functional. As to conditions: HepG2, 48 h.
The test system of assay [13] is A549. Put plainly: Antiproliferative activity against human A549 cells assessed as cell growth inhibition incubated for 48 hrs by MTT assay. Particulars: A549, 48 h. Type of assay: functional, cell-based.
The test system of assay [14] is HCT-116. The experiment in a line: Antiproliferative activity against human HCT-116 cells assessed as inhibition of cell growth incubated for 48 hrs by MTT based colorimetric assay. It counts as functional. As to conditions: HCT-116, 48 h.
In the next assay the test system is A-375. Put plainly: Antiproliferative activity against human A-375 cells assessed as inhibition of cell growth incubated for 48 hrs by MTT based colorimetric method. Type of assay: functional. Particulars: A-375, 48 h.
Assay [15] deals with K562. The experiment in a line: Cytotoxicity against human K562 cells assessed as cell growth inhibition after 48 hrs by MTT assay. Type of assay: functional, cell-based. Particulars: K562, 48 h.
In a further assay the test system is NCI-H460. The experiment in a line: Cytotoxicity against human NCI-H460 cells assessed as reduction in cell viability by MTS assay. It counts as functional, cell-based.
Assay [16] relates to MCF7. The experiment in a line: Cytotoxicity against human MCF7 cells assessed as reduction in cell viability by MTS assay. It counts as functional, cell-based.
The subject of the next assay is SF-268. Put plainly: Cytotoxicity against human SF-268 cells assessed as reduction in cell viability by MTS assay. Type of assay: functional, cell-based.
The subject of assay [17] is A549. Put plainly: Cytotoxicity against human A549 cells assessed as reduction in cell growth. It counts as functional, cell-based.
In assay [18] the test system is HCT-116. Put plainly: Cytotoxicity against human HCT-116 cells assessed as cell growth inhibition incubated for 24 hrs by MTT based colorimetric assay. It counts as functional. As to conditions: HCT-116, 24 h.
For assay [19], the system named is HepG2. Put plainly: Cytotoxicity against human HepG2 cells assessed as reduction in cell viability incubated for 24 hrs by MTT based colorimetric assay. Type of assay: functional. Particulars: HepG2, 24 h.
The test system of assay [20] is SK-MEL-28. Put plainly: Cytotoxicity against human SK-MEL-28 cells assessed as reduction in cell viability measured after 24 hrs by MTT assay. Type of assay: functional, cell-based. As to conditions: SK-MEL-28, 24 h.
Another assay deals with Hs 683. Put plainly: Cytotoxicity against human Hs 683 cells. It counts as functional, cell-based.
Assay [21] has as its system MCF7. Put plainly: Cytotoxicity against human MCF7 cells assessed as reduction in cell viability by SRB assay. It counts as functional, cell-based.
For assay [22], the system named is A549. Put plainly: Cytotoxicity against human A549 cells assessed as reduction in cell growth incubated for 5 days by MTT assay. Type of assay: functional, cell-based. As to conditions: A549, 120 h.
Assay [23] is described as follows: Cytotoxicity against human U373 cells assessed as reduction in cell viability after 24 hrs by MTT assay. It counts as functional, cell-based. As to conditions: U373 MG.

Indoleamine 2,3-dioxygenase 1, sequence (P14902 whole entry): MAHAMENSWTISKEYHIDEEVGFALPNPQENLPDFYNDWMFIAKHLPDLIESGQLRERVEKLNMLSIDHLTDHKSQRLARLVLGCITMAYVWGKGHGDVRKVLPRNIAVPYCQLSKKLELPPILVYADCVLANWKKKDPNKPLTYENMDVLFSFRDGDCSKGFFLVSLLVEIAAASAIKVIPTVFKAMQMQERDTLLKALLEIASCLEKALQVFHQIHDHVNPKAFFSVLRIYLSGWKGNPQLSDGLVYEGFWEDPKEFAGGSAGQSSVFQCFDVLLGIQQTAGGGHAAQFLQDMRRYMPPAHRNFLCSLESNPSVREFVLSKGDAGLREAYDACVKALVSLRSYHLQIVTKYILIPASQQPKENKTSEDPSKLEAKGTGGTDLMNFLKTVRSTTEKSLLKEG
Tryptophan 2,3-dioxygenase, sequence (P48775 whole entry): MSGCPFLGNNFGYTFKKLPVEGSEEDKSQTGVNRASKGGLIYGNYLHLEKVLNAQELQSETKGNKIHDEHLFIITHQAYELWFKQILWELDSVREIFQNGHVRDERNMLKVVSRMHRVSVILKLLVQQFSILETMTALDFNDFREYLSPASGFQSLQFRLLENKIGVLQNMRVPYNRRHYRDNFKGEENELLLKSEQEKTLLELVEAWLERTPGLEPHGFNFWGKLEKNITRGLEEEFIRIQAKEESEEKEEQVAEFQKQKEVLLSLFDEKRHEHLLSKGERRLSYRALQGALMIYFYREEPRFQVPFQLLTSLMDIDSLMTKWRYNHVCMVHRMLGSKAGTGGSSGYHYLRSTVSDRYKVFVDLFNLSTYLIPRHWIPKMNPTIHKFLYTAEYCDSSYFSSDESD

With `O=C(c1cnc2ccccc2c1)c1nc2ccccc2c(=O)[nH]1`, the half-maximal inhibitory concentration (IC50) in the assay on P388 [1] came to 2.3 µg/mL (≈ 7.63 µM).
Turning to `C[C@H]1C(=O)N2c3ccccc3[C@@]3(O)C[C@@H](n4cnc5ccccc5c4=O)C(=O)N1[C@@H]23`, the negative-log IC50 (pIC50) with K562 [2] is 7.46; with SW 1116 it was 7.47.
With `COc1ccc2c(=O)n3ccc4c5ccccc5[nH]c4c3nc2c1`, the negative-log IC50 (pIC50) with PC-3 was 4.66.
As for `C=CC(C)(C)[C@@]12C[C@@]3(O)c4nc5ccccc5c(=O)n4[C@H](C)C(=O)N3[C@@H]1N(C(C)=O)c1ccccc12`, in the assay with KB, the pIC50 is 4.21.
On to `CC1(C)C(=O)N2c3ccccc3[C@@]3(C[C@@H](n4cnc5ccccc5c4=O)C(=O)O3)[C@@H]2N1O`, for which the negative-log IC50 (pIC50) in [3] is < 4.00; with SK-MEL-28 [4], < 4.00; in the assay on HepG2 [5] it was 3.63; in the assay on A549 [6], < 4.00; in the assay on MCF7 [7] it was < 4.00.
`CN(C)CCc1ccc2nc3n(c(=O)c2c1)C1C=CC(F)=CC1C3=O` (configuration not stated): the pIC50 in [8] was 7.22; in assay [9], 7.70.
Regarding `C[C@@H]1NC(=O)[C@@H](Cc2c[nH]c3ccccc23)n2c1nc1ccccc1c2=O` [FUMIQUINAZOLINE F], the EC50 with P388 [10] was 14.6 µg/mL (≈ 40.7 µM).
As for `C[C@H]1C(=O)N2c3ccccc3[C@@]3(C[C@@H](n4cnc5ccccc5c4=O)C(=O)O3)[C@@H]2N1O`, the pIC50 in [3] was < 4.00; with SK-MEL-28 [4] it was < 4.00; with A549 [11], 6.27; with HepG2 [5], 3.63; in the assay on A549 [6], < 4.00; in the assay on MCF7 [7], < 4.00.
With `C[C@H]1NC(=O)[C@@H](Cc2c[nH]c3ccccc23)n2c1nc1ccccc1c2=O` [FUMIQUINAZOLINE G], the EC50 in the assay with P388 [10] amounted to 17.7 µg/mL (≈ 49.4 µM).
For the molecule `CC(=O)O[C@H](c1nc2ccccc2c(=O)n1[C@@H]1C[C@@]2(OC1=O)c1ccccc1N1C(=O)C(C)(C)N(O)[C@H]12)C(C)C`, the negative logarithm of the IC50 (pIC50) is 4.24 in the assay on HepG2 [12], 6.27 in the assay with A549 [13], 3.94 with HCT-116 [14] and 3.97 with A-375.
Take `C[C@@]12NC(=O)[C@@H](CC13c1ccccc1N1C(=O)CN[C@@H]13)n1c2nc2ccccc2c1=O` (some centres not stated): in the assay with K562 [15], the pIC50 was 4.30.
As to `COC(=O)c1c2ccccc2n2c(=O)c3ccccc3[nH]c12` [PHAITANTHRIN E], the pIC50 in the assay on NCI-H460, in the assay on MCF7 [16] and in the assay on SF-268 was < 4.30 throughout.
`O=C1O[C@]2(C[C@H]1n1cnc3ccccc3c1=O)C(=O)Nc1ccccc12`: the pIC50 in assay [3] was < 4.00; in the assay on SK-MEL-28 [4] it was < 4.00; in the assay with HepG2 [5], 3.63; in the assay with A549 [6] it was < 4.00; in the assay with MCF7 [7] it was < 4.00.
As to `CN1CCN(CCc2ccc3nc4n(c(=O)c3c2)C2C=CC(F)=CC2C4=O)CC1` (configuration not stated), the negative-log IC50 (pIC50) in assay [8] is 7.05; in assay [9], 7.70.
`C=CC(C)(C)[C@@]12C[C@H]3c4nc5ccccc5c(=O)n4[C@H](C)C(=O)N3[C@@H]1N(C(C)=O)c1ccccc12`: the pIC50 with KB is 3.97.
Turning to `CC(C)[C@H]1NC(=O)[C@@H](C[C@]2(O)c3ccccc3N3C(=O)[C@H](C)N[C@H]32)n2c1nc1ccccc1c2=O`, the negative logarithm of the IC50 (pIC50) in the assay with A549 [17] was 6.27; with HCT-116 [18], 3.56; in the assay with HepG2 [19], 3.94; in the assay with SK-MEL-28 [20] it was < 4.00; in the assay on Hs 683 it was < 4.00; with MCF7 [21], < 4.00. In addition, the negative logarithm of the IC50 (pIC50) (in the assay with A549 [22]; in assay [23]) was < 4.00 throughout.
On to `COC(=O)CC1(O)c2ccccc2-n2c1nc1ccccc1c2=O` (configuration not stated) [PHAITANTHRINS B], for which the pIC50 in the assay with NCI-H460, in the assay on MCF7 [16] and with SF-268 was < 4.30 in each case.
